Measurements: patent US20080181882A1, “Neurgulin 1 (NRG1) - ErbB4 signaling as a target for the treatment of schizophrenia” (The University of Pennsylvania, priority 2006, published 2008)
“Also recorded” adds a separate entry of the source.

B1: BDNF: another trophic factor for a different tyrosine kinase receptor (protein, UniProt P23560 19-247, looked up)
Neurotrophic factor BDNF …: APMKEANIRGQGGLAYPGVRTHGTLESVNGPKAGSRGLTSLADTFEHVIEELLDEDQKVRPNEENNKDADLYTSRVMLSSQVPLEPPLLFLLEEYKNYLDAANMSMRVRRHSDPARRGELSVCDSISEWVTAADKKTAVDMSGGTVTVLEKVPVSKGQLKQYFYETKCNPMGYTKEGCRGIDKRHWNSQCRTTQSYVRALTMDSKKRIGWRFIRIDTSCVCTLTIKRGR

Assays:
erbB4 [1] = target: T1, erbB4 (Homo sapiens, UniProt Q15303); assay: NRG1 stimulation-induced erbB4 tyrosine phosphorylation in postmortem brain tissue (erbB4 IP, phosphotyrosine immunoblot); type: cell-based; conditions: postmortem PFC tissue stimulated 37° C. 30 min; NRG1-GST or GST 200 ng/ml; NMDA 10 μM + 1 μM glycine
T1 construct: Postmortem PFC tissues were gradually thawed and sliced using a McIlwain tissue chopper; from tissue; host or cells: postmortem human prefrontal cortex (Brodmann areas 9, 10 and/or 46), schizophrenic and control subjects
Protocol: Postmortem PFC tissues were gradually thawed and sliced using a McIlwain tissue chopper (200 μm×200 μm×3 mm). Tissue slices ([…]) were suspended in ice-cold Krebs-Ringer solution containing 118 mM NaCl, 4.8 mM KCl, 1.3 mM CaCl2, 1.2 mM KH2 PO4, 1.2 mM MgSO4, 25 mM NaHCO3, 10 mM glucose, 100 μM ascorbic acid, […] leupeptin, 0.2 mM PMSF, 25 μg/ml pepstatin A and 0.01 U/ml soybean trypsin inhibitor (pH 7.4). We incubated ˜20 mg of tissue with Krebs-Ringer solution containing either 200 ng/ml GST fusion protein or a mixture of neuregulin-1α-GST and neuregulin-1β-GST (200 ng/ml each), at 37° C. for 30 min. During stimulation, the incubation mixture was aerated with 95% O2, 5% CO2 every 10 min for 1 min. Ligand stimulation was terminated by adding of 1 ml ice-cold Ca^2+-free Krebs-Ringer solution containing 0.5 mM EGTA. Tissue slices were harvested by a brief centrifugation and homogenized in 0.25 ml ice-cold immunoprecipitation buffer (same make-up as homogenization buffer described above). The homogenates was centrifuged at 800 g for 10 min and the supernatant sonicated for 10 s. The proteins were solubilized in 0.5% digitonin, 0.2% sodium cholate and 0.5% NP-40 for 60 min. Lysates were cleared by centrifugation at 50,000 g for 5 min and diluted with 0.75 ml of immunoprecipitation buffer. Protein concentrations were determined using the Bradford method (Bio-Rad). […]

erbB4 [2] = assay: NRG1-induced erbB4 activation in PFC slices of mice after chronic haloperidol treatment; type: in vivo, mouse; conditions: chronic haloperidol implant, 12 weeks
Protocol: (A) […] slices of PFCs of control and haloperidol treated mice were incubated with or without NRG 1 for 30 min. Tissue lysates were immunoprecipitated for erbB4 and were probed with antiphosphotyrosine or anti-erbB4. (B) Densitometric analysis of erbB4 activation in (A). Graph constructed for the ratios of the intensities for pY-erbB4 over erbB4 for control and haloperidol treated mice. NRG1 induced tyrosine phosphorylation was attenuated in haloperidol treated mice (t(6)=[…]);
(§1) Adult CH3 mice were implanted with a Medisorb bioabsorbable polymer disc (Alkermes Inc.), fabricated with haloperidol (n=7) or polymer vehicle only (n=7). These implants were previously shown to release haloperidol for at least 5 months with a calculated release rate of approximately 2 mg/kg per day. After 12 weeks of treatment, mice were sacrificed and the pooled serum haloperidol concentration was measured. Animal experiments were approved by the Institutional and Animal Care and Use Committee of the University of Pennsylvania.
To assess potential confounding effects of demographic or clinical variables, the levels of NRG1 and erbB4 isoforms were assessed, as well as the activation of erbB4, ERK and AKT, for correlations with sex, age, brain pH, postmortem interval and, for the schizophrenia group, exposure to an antipsychotic drug 1 month before death. No significant correlations were found. […]

[3] = Serum haloperidol concentration in implanted mice; type: in vivo; conditions: CH3, mouse, other: implanted bioabsorbable polymer disc, pooled serum, mice with haloperidol implant
Protocol: as §1

T1 sequence (Q15303 26-1308): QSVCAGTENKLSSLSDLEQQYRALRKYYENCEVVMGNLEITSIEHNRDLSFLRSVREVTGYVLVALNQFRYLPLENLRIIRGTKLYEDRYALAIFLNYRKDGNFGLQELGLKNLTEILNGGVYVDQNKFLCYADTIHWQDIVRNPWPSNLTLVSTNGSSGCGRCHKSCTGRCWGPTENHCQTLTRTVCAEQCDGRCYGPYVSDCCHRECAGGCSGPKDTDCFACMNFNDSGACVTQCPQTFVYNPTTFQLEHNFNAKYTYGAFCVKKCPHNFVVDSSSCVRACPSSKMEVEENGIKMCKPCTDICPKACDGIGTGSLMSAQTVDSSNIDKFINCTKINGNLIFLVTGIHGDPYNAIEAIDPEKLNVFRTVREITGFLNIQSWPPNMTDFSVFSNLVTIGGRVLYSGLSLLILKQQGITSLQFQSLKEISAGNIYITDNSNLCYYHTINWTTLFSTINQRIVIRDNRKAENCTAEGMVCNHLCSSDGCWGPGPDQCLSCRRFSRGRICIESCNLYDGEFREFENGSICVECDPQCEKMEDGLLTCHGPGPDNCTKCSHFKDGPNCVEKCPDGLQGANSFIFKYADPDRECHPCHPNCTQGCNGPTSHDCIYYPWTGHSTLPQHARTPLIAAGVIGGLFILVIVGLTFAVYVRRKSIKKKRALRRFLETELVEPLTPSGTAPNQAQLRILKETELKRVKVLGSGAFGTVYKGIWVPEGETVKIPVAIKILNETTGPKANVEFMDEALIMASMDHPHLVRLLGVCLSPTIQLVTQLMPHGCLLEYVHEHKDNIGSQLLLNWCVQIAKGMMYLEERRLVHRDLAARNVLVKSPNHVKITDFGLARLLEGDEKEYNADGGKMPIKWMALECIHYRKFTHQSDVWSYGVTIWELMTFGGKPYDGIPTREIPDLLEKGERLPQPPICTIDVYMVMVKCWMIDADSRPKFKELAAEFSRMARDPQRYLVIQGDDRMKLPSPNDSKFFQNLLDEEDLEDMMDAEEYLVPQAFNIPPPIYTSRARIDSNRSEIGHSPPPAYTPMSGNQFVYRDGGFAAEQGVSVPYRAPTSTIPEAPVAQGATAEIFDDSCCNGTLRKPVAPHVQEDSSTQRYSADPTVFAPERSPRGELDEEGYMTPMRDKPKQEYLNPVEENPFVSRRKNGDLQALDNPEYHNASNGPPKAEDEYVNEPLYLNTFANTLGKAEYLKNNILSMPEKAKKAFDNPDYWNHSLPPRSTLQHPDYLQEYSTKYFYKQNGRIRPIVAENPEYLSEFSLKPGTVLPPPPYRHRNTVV

Row | Molecule | tyrosine phosphorylation of erbB4 (erbB4 [1]) | NRG1-induced erbB4 activation (pY-erbB4 over erbB4), haloperidol treated vs vehicle mice (erbB4 [2]) | concentration at 12 weeks [3] [ng/mL]
1 | CN[C@H](CC(=O)O)C(=O)O [NMDA, N-methyl-Daspartate] | did not enhance |  | 
2 | O=C(CCCN1CCC(O)(c2ccc(Cl)cc2)CC1)c1ccc(F)cc1 [haloperidol] |  | significantly reduced; also recorded: attenuated | 3.1
3 | B1 | Neither enhanced |  | 
